In patent publication US20140005163A1 (NOVARTIS AG, priority 2010, published 2014):
≈ marks a conversion by molar mass, not a printed value.

Columns and labels:
[1] = test system: PKB Ser473 phosphorylation in Rat1-myr-HA-p110 delta cells; experiment: Reverse protein array assay, PKB Ser473 phosphorylation in Rat1-myr-p110 delta cells; format: cell-based; settings: read-out: p-PKB IC50
Outline: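 After at least 20 h of culture, the p110 isoform-transfected Rat1 lines receive compound in an 8-step dilution series, keeping DMSO at 0.2%, for 30 minutes. Cells are then lysed and lysates arrayed on chips for fluorescence detection of Ser473-phosphorylated PKB.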

[2] = Solubility at pH 6.8; format: physicochemical; settings: pH 6.8, aqueous buffer, thermodynamic from solid; read-out: solubility
Outline: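 Following the procedure of Zhou et al. (2007), compound solubility was determined at pH 6.8.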

[3] = biological target: T1, PI3K alpha (Homo sapiens, UniProt P42336); experiment: PI3K alpha kinase assay (Kinase-Glo luminescence); format: biochemical
T1 construct: p85(iSH2) fusion partner (see partner chain) (N); His tag (C); made in house; host or cells: baculovirus; Tn5 (Trichoplusia ni) or TiniPro insect cells
T1 sequence (P42336 with tags, fused parts or gaps limits assumed): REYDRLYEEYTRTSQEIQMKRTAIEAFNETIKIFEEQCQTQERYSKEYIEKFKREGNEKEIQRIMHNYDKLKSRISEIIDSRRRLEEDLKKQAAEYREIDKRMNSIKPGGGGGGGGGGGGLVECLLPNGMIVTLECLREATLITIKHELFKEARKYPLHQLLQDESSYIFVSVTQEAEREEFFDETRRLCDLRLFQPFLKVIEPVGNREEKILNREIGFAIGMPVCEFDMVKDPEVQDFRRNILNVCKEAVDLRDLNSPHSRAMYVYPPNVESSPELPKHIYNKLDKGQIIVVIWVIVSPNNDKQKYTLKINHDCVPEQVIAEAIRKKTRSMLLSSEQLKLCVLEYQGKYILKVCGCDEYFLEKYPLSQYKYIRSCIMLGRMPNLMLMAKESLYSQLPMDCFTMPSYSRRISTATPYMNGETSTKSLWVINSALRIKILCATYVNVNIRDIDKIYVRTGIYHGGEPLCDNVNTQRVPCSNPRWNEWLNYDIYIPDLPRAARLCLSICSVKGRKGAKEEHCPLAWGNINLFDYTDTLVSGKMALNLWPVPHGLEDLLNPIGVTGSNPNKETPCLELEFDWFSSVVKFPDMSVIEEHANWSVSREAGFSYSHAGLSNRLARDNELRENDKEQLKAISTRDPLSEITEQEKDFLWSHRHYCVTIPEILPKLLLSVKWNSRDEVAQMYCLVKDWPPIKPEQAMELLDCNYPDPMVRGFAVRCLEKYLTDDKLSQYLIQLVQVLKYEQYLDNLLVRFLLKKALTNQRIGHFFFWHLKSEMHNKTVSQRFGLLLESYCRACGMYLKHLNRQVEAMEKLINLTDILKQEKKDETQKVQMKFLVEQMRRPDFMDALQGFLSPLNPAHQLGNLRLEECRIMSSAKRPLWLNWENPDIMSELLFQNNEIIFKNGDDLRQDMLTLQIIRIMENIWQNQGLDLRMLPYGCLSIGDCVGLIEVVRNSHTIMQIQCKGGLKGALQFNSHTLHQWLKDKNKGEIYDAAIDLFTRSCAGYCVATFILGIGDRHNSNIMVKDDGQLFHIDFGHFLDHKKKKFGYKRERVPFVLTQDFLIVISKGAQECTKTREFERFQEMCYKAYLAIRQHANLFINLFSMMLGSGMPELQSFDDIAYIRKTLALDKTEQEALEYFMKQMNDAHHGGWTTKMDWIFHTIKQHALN
Outline: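 Enzyme 10 nM PI3Kα EMV B1075; ATP 1 μM; PI 10 μg/mL; Tris-HCl pH 7.5 10 mM, MgCl2 3 mM, NaCl 50 mM, CHAPS 0.05%, DTT 1 mM; 60 min RT; Kinase-Glo luminescence; 4-parameter IC50 fit, 8 concentrations, single points.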

Compound	IC50 [1] [nM]	solubility [2] [µg/mL]	IC50 [3] [nM]
Cc1nn(C(C)C)cc1-n1c(=O)n(C)c2cnc3ccc(-c4cnc(F)c(N)c4)cc3c21 [Example 149.1, 8-(5-Amino-6-fluoro-pyridin-3-yl)-1-(1-isopropyl-3-methyl-1H-pyrazol-4-yl)-3-methyl-1,3-dihydro-imidazo[4,5-c]quinolin-2-one]	118	13 (≈ 30.1 µM)	48
CCn1cc(-n2c(=O)n(C)c3cnc4ccc(-c5cncc(OC(C)C)c5)cc4c32)c(C)n1 [Example 58.4, 1-(1-Ethyl-3-methyl-1H-pyrazol-4-yl)-8-(5-isopropoxy-pyridin-3-yl)-3-methyl-1,3-dihydro-imidazo[4,5-c]quinolin-2-one]	86	27 (≈ 61 µM)	14
CCn1cc(-n2c(=O)n(C)c3cnc4ccc(-c5cnc(OC)nc5)cc4c32)c(C)n1 [Example 17.1, 1-(1-Ethyl-3-methyl-1H-pyrazol-4-yl)-8-(2-methoxy-pyrimidin-5-yl)-3-methyl-1,3-dihydro-imidazo[4,5-c]quinolin-2-one]	103	81 (≈ 195 µM)	30
Cc1nn(C)cc1-n1c(=O)n(C)c2cnc3ccc(-c4cnc(N(C)C)nc4)cc3c21 [Example 6.2, 8-(2-Dimethylamino-pyrimidin-5-yl)-1-(1,3-dimethyl-1H-pyrazol-4-yl)-3-methyl-1,3-dihydro-imidazo[4,5-c]quinolin-2-one]	76	41 (≈ 98.9 µM)	22
Cc1nn(C)c(C)c1-n1c(=O)n(C)c2cnc3ccc(-c4cccc(O)c4)cc3c21 [Example 32.2, 8-(3-Hydroxy-phenyl)-3-methyl-1-(1,3,5-trimethyl-1H-pyrazol-4-yl)-1,3-dihydro-imidazo[4,5-c]quinolin-2-one]	366	194 (≈ 486 µM)	30
Cc1nn(C(C)C)cc1-n1c(=O)n(C)c2cnc3ccc(-c4ccc(CO)nc4)cc3c21 [Example 16.3, 8-(6-hydroxymethyl-pyridin-3-yl)-1-(1-isopropyl-3-methyl-1H-pyrazol-4-yl)-3-methyl-1,3-dihydro-imidazo[4,5-c]quinolin-2-one]	125	> 428	59
CCN(CC)C(=O)Cn1cc(-n2c(=O)n(C)c3cnc4ccc(-c5ccc(C)nc5)cc4c32)c(C)n1 [Example 139, N,N-Diethyl-2-{3-methyl-4-[3-methyl-8-(6-methyl-pyridin-3-yl)-2-oxo-2,3-dihydro-imidazo[4,5-c]quinolin-1-yl]-pyrazol-1-yl}-acetamide]	70	> 484	17
COc1ncc(-c2ccc3ncc4c(c3c2)n(-c2cn(C)nc2C)c(=O)n4C)cn1 [Example 17.2, 1-(1,3-Dimethyl-1H-pyrazol-4-yl)-8-(2-methoxy-pyrimidin-5-yl)-3-methyl-1,3-dihydro-imidazo[4,5-c]quinolin-2-one]	58	32 (≈ 79.7 µM)	56
Cc1nn(C)cc1-n1c(=O)n(C)c2cnc3ccc(-c4cncc(OCC5CC5)c4)cc3c21 [Example 61, 8-(5-Cyclopropylmethoxy-pyridin-3-yl)-1-(1,3-dimethyl-1H-pyrazol-4-yl)-3-methyl-1,3-dihydro-imidazo[4,5-c]quinolin-2-one]	246	8 (≈ 18.2 µM)	12
CCn1cc(-n2c(=O)n(C)c3cnc4ccc(-c5cncc(C(C)(C)O)c5)cc4c32)c(C)n1 [Example 215.4, 1-(1-Ethyl-3-methyl-1H-pyrazol-4-yl)-8-[5-(1-hydroxy-1-methyl-ethyl)-pyridin-3-yl]-3-methyl-1,3-dihydro-imidazo[4,5-c]quinolin-2-one]	115	> 443	6
CNC(=O)c1ccc(-c2ccc3ncc4c(c3c2)n(-c2cn(C)nc2C)c(=O)n4C)cn1 [Example 15.1, 5-[1-(1,3-Dimethyl-1H-pyrazol-4-yl)-3-methyl-2-oxo-2,3-dihydro-1H-imidazo[4,5-c]quinolin-8-yl]-pyridine-2-carboxylic acid methylamide]	91	10 (≈ 23.4 µM)	16
CCOc1ncc(-c2ccc3ncc4c(c3c2)n(-c2cn(C)nc2C)c(=O)n4C)cn1 [Example 52, 1-(1,3-Dimethyl-1H-pyrazol-4-yl)-8-(2-ethoxy-pyrimidin-5-yl)-3-methyl-1,3-dihydro-imidazo[4,5-c]quinolin-2-one]	96	11 (≈ 26.5 µM)	56
COc1cncc(-c2ccc3ncc4c(c3c2)n(-c2cn(C)nc2C)c(=O)n4C)c1 [Example 12, 1-(1,3-Dimethyl-1H-pyrazol-4-yl)-8-(5-methoxy-pyridin-3-yl)-3-methyl-1,3-dihydro-imidazo[4,5-c]quinolin-2-one]	79	39 (≈ 97.4 µM)	8
Cc1nn(C)cc1-n1c(=O)n(C)c2cnc3ccc(-c4ccc(N5CC[C@@H](O)C5)nc4)cc3c21 [Example 212.1, 1-(1,3-Dimethyl-1H-pyrazol-4-yl)-8-[6-((R)-3-hydroxy-pyrrolidin-1-yl)-pyridin-3-yl]-3-methyl-1,3-dihydro-imidazo[4,5-c]quinolin-2-one]	768	55 (≈ 121 µM)	53
CCOc1cc(-c2ccc3ncc4c(c3c2)n(-c2cn(C)nc2C)c(=O)n4C)ccn1 [Example 91, 1-(1,3-Dimethyl-1H-pyrazol-4-yl)-8-(2-ethoxy-pyridin-4-yl)-3-methyl-1,3-dihydro-imidazo[4,5-c]quinolin-2-one]	631	13 (≈ 31.4 µM)	83
Cc1nn(C)cc1-n1c(=O)[nH]c2cnc3ccc(-c4cnc(N(C)C)nc4)cc3c21 [Example 207, 8-(2-Dimethylamino-pyrimidin-5-yl)-1-(1,3-dimethyl-1H-pyrazol-4-yl)-1,3-dihydro-imidazo[4,5-c]quinolin-2-one]	238	18 (≈ 44.9 µM)	14

Now from value to molecule:

IC50 [1] [nM]	solubility [2] [µg/mL]	IC50 [3] [nM]	Compound
24	> 444	34	CNc1cc(-c2ccc3ncc4c(c3c2)n(-c2cn(C)nc2C)c(=O)n4C)cnc1COC [Example 159, 1-(1,3-Dimethyl-1H-pyrazol-4-yl)-8-(6-methoxymethyl-5-methylamino-pyridin-3-yl)-3-methyl-1,3-dihydro-imidazo[4,5-c]quinolin-2-one]
11	44 (≈ 94.1 µM)	10	CNc1ncc(-c2ccc3ncc4c(c3c2)n(-c2cn(C)nc2C)c(=O)n4C)cc1C(F)(F)F [Example 144.3, 1-(1,3-Dimethyl-1H-pyrazol-4-yl)-3-methyl-8-(6-methylamino-5-trifluoromethyl-pyridin-3-yl)-1,3-dihydro-imidazo[4,5-c]quinolin-2-one]
51	84 (≈ 192 µM)	3	Cc1nn(C)cc1-n1c(=O)n(C)c2cnc3ccc(-c4cncc(OC(F)F)c4)cc3c21 [Example 183, 8-(5-Difluoromethoxy-pyridin-3-yl)-1-(1,3-dimethyl-1H-pyrazol-4-yl)-3-methyl-1,3-dihydro-imidazo[4,5-c]quinolin-2-one]
39	5 (≈ 12 µM)	3	COc1ccc(-c2ccc3ncc4[nH]c(=O)n(-c5cc(C)nn5C)c4c3n2)cc1OC [Example 252, 8-(3,4-Dimethoxy-phenyl)-1-(2,5-dimethyl-2H-pyrazol-3-yl)-1,3-dihydro-1,3,5,9-tetraaza-cyclopenta[a]naphthalen-2-one]
57	33 (≈ 74.4 µM)	9	CCOCc1cc(-c2ccc3ncc4c(c3c2)n(-c2cn(C)nc2C)c(=O)n4C)cnc1N [Example 166.1, 8-(6-Amino-5-ethoxymethyl-pyridin-3-yl)-1-(1,3-dimethyl-1H-pyrazol-4-yl)-3-methyl-1,3-dihydro-imidazo[4,5-c]quinolin-2-one]
44	7 (≈ 16.4 µM)	15	CCn1cc(-n2c(=O)n(C)c3cnc4ccc(-c5ccc(N(C)C)nc5)cc4c32)c(C)n1 [Example 4.2, 8-(6-Dimethylamino-pyridin-3-yl)-1-(1-ethyl-3-methyl-1H-pyrazol-4-yl)-3-methyl-1,3-dihydro-imidazo[4,5-c]quinolin-2-one]
< 5	433 (≈ 981 µM)	9	CCNc1cc(-c2ccc3ncc4c(c3c2)n(-c2cn(C)nc2C)c(=O)n4C)cnc1CC [Example 161, 1-(1,3-Dimethyl-1H-pyrazol-4-yl)-8-(6-ethyl-5-ethylamino-pyridin-3-yl)-3-methyl-1,3-dihydro-imidazo[4,5-c]quinolin-2-one]
28	9 (≈ 23.4 µM)	14	Cc1ccc(-c2ccc3ncc4c(c3c2)n(-c2cn(C)nc2C)c(=O)n4C)cn1 [Example 7.2, 1-(1,3-Dimethyl-1H-pyrazol-4-yl)-3-methyl-8-(6-methyl-pyridin-3-yl)-1,3-dihydro-imidazo[4,5-c]quinolin-2-one]
44	7 (≈ 16.3 µM)	4	COc1ccc(-c2ccc3ncc4c(c3n2)n(-c2cc(C)nn2C)c(=O)n4C)cc1OC [Example 253, 8-(3,4-Dimethoxy-phenyl)-1-(2,5-dimethyl-2H-pyrazol-3-yl)-3-methyl-1,3-dihydro-1,3,5,9-tetraaza-cyclopenta[a]naphthalen-2-one]
